Reference: US20220008350A1, “PROCESS FOR ENGINEERING TARGETED NANOPARTICLES” (University of North Texas Health Science Center, priority 2018, published 2022)

Columns and labels:
[1] = biological target: ATP-dependent drug efflux pump glycoprotein (P-gp) (Homo sapiens, UniProt P08183); conditions: cited from earlier work
[2] = In vivo bone retention (intraosseous injection); conditions: injected into mouse tibia, live animal imaging up to 72 hours, NIR dye
Description: In vivo bone retention. […] Animals were imaged initially and at time points: 1 hour, 24 hours, 48 hours, and 72 hours to assess for NIR signal on IVIS animal imager. Fluorescent signal was quantified at each time and compared to the signal for the initial time point of each mouse to give the percentage of retained nanoparticle in the bone. Additionally, half-life of nanoparticle signal in the bone was calculated with the following equation: N(t)=N0(½)^(t/t1/2).

[3] = test system: integrin αVβ3 surface expression in C4-2B prostate cancer cells; experiment: αVβ3 protein stimulation and verification (immunocytochemistry); assay type: cell-based, human; conditions: C4-2B cells, 200 ng/mL CXCL12, after first hour, constant for 12 hours
Description: αVβ3 Protein Stimulation and Verification. C4-2B cells were grown on glass coverslips in a six-well dish and then stimulated to express αVβ3 by treatment with 200 ng/mL of recombinant human CXCL12 (R&D Systems, Minneapolis, Minn.) for 1, 6, or 12 hours at 37° C. After cells were stimulated they were rinsed with PBS, fixed with 4% formaldehyde (Affymetrix) for 10 min at room temperature, washed twice with PBS, and blocked for 1 hour with 1% BSA in PBS. Next cells were incubated for 4 hours with a 1:100 dilution of anti-integrin αVβ3 antibody, clone LM609 (Millipore). Incubation was followed by three washes with PBS, and then incubated for 45 minutes with a 1:200 dilution of the goat anti-mouse IgG (H+L) secondary antibody, Alexa Fluor 488 conjugate (Life Technologies). Cells were washed twice more and mounted on slides with Prolong Gold antifade reagent with DAPI (Invitrogen). Fluorescent images were taken with Olympus AX70 Florescent Microscope.

Chain of ATP-dependent drug efflux pump glycoprotein (P-gp) (P08183 whole entry): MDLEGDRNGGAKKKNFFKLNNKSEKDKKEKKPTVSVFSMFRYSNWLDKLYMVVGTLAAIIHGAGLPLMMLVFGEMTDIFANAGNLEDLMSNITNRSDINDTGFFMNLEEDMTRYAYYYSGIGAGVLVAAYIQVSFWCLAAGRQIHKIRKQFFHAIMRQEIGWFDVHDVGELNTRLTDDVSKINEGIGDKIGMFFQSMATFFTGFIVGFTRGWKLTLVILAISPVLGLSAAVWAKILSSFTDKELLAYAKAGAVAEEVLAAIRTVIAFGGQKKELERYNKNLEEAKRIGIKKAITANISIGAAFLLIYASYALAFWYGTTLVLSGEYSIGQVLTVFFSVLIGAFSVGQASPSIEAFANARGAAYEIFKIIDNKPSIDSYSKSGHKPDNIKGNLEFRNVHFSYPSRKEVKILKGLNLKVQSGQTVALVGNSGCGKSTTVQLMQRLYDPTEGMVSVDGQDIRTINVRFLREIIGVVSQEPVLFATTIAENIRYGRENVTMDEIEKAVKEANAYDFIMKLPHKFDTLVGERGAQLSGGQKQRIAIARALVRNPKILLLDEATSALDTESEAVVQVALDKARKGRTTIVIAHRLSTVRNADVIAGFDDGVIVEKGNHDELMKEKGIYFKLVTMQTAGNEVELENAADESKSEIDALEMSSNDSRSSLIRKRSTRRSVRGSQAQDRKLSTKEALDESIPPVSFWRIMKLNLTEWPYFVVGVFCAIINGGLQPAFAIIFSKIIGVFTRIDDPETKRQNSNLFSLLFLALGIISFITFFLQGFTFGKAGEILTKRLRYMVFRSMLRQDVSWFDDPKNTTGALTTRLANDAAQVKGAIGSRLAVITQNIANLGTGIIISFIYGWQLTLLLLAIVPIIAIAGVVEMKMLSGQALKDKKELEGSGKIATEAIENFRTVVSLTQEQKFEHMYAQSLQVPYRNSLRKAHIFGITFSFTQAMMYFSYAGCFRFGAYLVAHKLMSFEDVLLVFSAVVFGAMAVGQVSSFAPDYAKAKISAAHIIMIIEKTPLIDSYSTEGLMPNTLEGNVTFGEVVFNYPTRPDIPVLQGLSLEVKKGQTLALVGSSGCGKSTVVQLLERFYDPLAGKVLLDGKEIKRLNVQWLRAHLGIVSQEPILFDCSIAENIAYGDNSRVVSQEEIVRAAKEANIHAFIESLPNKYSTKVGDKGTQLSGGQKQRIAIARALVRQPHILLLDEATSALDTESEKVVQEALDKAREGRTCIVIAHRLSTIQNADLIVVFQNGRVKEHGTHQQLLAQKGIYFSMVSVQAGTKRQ

CO[C@H]1C(=O)[C@]2(C)[C@@H](OC)C[C@H]3OC[C@@]3(OC(C)=O)[C@H]2[C@H](OC(=O)c2ccccc2)[C@]2(O)C[C@H](OC(=O)[C@H](O)[C@@H](NC(=O)OC(C)(C)C)c3ccccc3)C(C)=C1C2(C)C [Cabazitaxel]
substrate affinity for P-gp [1]: lower substrate affinity

CCCN1C(=CC=C2CCCC(C=CC3=[N+](CCC)c4ccccc4C3(C)C)=C2Cl)C(C)(C)c2ccccc21.[I-] [dye, IR-780 dye]
retention and half-life in the bone [2]: equivalent regarding retention in the bone

C-X-C motif chemokine ligand 12 [CXCL12]
increase in expression level of αVβ3 [3]: approximately 2 fold
